Results published in ChEMBL document CHEMBL1135592, “Structural determinants of A(3) adenosine receptor activation: nucleoside ligands at the agonist/antagonist boundary” (J Med Chem, 2002).

Columns and labels:
[1] = target: Adenosine receptor A3 (Homo sapiens, UniProt P0DMS8, W243A); experiment: Binding affinity towards Adenosine A3 receptor (W243 A mutant receptor)
[2] = target: T1, Adenosine receptor A3 (Homo sapiens, UniProt P0DMS8); experiment: Affinity for human Adenosine A3 receptor expressed in CHO cell; format: cell-based
T1 sequence (P0DMS8 whole entry): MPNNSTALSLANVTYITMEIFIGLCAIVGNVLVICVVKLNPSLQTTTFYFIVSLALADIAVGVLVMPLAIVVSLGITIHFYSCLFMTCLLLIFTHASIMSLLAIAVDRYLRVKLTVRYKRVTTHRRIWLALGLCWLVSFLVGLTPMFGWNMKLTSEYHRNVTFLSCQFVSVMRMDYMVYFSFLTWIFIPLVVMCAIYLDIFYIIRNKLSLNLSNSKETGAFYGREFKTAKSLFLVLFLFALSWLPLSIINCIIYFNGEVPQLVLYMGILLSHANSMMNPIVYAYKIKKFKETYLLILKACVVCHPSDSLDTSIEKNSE

[3] = target: T1, Adenosine receptor A3; experiment: Binding affinity towards human Adenosine A3 receptor wild type
[4] = target: Adenosine receptor A3 (Homo sapiens, UniProt P0DMS8, H95A); experiment: Binding affinity towards Adenosine A3 receptor (H95A mutant receptor)
[5] = target: T1, Adenosine receptor A3; experiment: Effect on forskolin-stimulated cyclic AMP production in intact chinese hamster ovary (CHO) cell expressing the human Adenosine A3 receptor; format: functional
[6] = target: T2, Adenosine receptor A3 (Rattus norvegicus, UniProt P28647); experiment: Binding affinity of adenosine derivative for recombinant rat Adenosine A3 receptor expressed on CHO cell
T2 sequence (P28647 whole entry): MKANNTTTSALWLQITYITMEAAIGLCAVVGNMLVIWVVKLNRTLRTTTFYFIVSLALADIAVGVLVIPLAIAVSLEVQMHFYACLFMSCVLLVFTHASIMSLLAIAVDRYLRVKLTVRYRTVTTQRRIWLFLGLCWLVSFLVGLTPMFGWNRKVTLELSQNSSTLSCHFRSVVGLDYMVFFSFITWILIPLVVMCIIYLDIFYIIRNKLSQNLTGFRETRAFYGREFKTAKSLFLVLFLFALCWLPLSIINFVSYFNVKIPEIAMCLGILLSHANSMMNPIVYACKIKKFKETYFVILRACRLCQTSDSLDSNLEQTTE

[7] = target: T2, Adenosine receptor A3; experiment: Binding affinity of adenosine derivative for endogenous rat Adenosine A3 receptor of RBL-2H3
[8] = target: T1, Adenosine receptor A3; experiment: Affinity towards human Adenosine A3 receptor in CHO cell; format: cell-based
[9] = target: Adenosine receptor A3 (Homo sapiens, UniProt P0DMS8); experiment: Binding affinity towards Adenosine A3 receptor (W243 mutant receptor)
[10] = target: T1, Adenosine receptor A3; experiment: biochemical
Description: Binding affinity in membrane of CHO cell stably expressing recombinant human Adenosine A3 receptor in the presence of GTPgammaS using [3H]8-ethyl-4-methyl-2-phenyl-(8R)-4,5,7,8-tetrahydro-1H-imidazo[2,1-i]-purin-5-one as radioligand

[11] = target: T1, Adenosine receptor A3; experiment: biochemical; remark: listed apart in the source
Description: Bnding affinity in membrane of CHO cell stably expressing recombinant human Adenosine A3 receptor using [3H]8-ethyl-4-methyl-2-phenyl-(8R)-4,5,7,8-tetrahydro-1H-imidazo[2,1-i]-purin-5-one as radioligand

Chain of Adenosine receptor A3 (Homo sapiens, UniProt P0DMS8, H95A) (P0DMS8 whole entry H95A): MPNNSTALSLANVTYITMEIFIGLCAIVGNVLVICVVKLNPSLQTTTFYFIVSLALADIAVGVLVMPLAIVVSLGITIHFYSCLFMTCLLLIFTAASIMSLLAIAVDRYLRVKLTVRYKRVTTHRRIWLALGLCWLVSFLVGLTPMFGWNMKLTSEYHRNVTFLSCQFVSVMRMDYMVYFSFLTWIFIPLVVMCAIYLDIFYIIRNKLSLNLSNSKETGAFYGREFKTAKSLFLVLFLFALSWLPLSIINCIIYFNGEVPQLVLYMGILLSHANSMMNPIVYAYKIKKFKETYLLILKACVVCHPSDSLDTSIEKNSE
Chain of Adenosine receptor A3 (Homo sapiens, UniProt P0DMS8, W243A) (P0DMS8 whole entry W243A): as the sequence (P0DMS8 whole entry H95A) above, with A95H, W243A counted along it

Ki [1] [nM]	Ki [2] [nM]	Ki [3] [nM]	EC50 [5] [nM]	SMILES	also measured
46		83		Nc1nc(Cl)nc2c1ncn2C1C(O)C(O)C2(CO)CC12 (configuration not stated)	
	87		1630	Nc1nc(Cl)nc2c1ncn2[C@@H]1O[C@H](CO)[C@@H](O)[C@H]1O	
1.2	1.3	2.1	5.4	CNC(=O)C12CC1C(n1cnc3c(NCc4cccc(I)c4)ncnc31)C(O)C2O (configuration not stated)	
137		142	242	OC[C@H]1O[C@@H](n2cnc3c(NC4CCCC4)ncnc32)[C@H](O)[C@@H]1O [N6-CYCLOPENTYLADENOSINE]	Ki [4]: 615 nM
	1.9	1.7		OCC12CC1C(n1cnc3c(NCc4cccc(I)c4)nc(Cl)nc31)C(O)C2O (configuration not stated)	Ki [9]: 1.3 nM; Ki [6]: 1.3 nM; Ki [10]: 4 nM; Ki [11]: 2.7 nM; Ki [7]: 2.9 nM; Ki [4]: 460 nM

Continued, molecule first:

SMILES	Ki [1] [nM]	Ki [2] [nM]	Ki [3] [nM]	EC50 [5] [nM]	also measured
OCC12CC1C(n1cnc3c(NCc4cccc(I)c4)ncnc31)C(O)C2O (configuration not stated)	2.7	9.2	3.9		Ki [4]: 99 nM
Nc1nc(F)nc2c1ncn2[C@@H]1O[C@H](CO)[C@@H](O)[C@H]1O		99		2660	
OCC12CC1C(n1cnc3c(NCc4cccc(I)c4)nc(Cl)nc31)C1OC12 (configuration not stated)	490	572	584		
O=C1NCC[C@@]12O[C@@H](n1cnc3c(NCc4cccc(I)c4)ncnc31)[C@H](O)[C@@H]2O					Ki [6]: 49 nM; Ki [7]: 51 nM
CCCCn1c(=O)c2c(ncn2[C@@H]2O[C@H](C(=O)NC)[C@@H](O)[C@H]2O)n(CCCC)c1=O		816		828	
OC[C@H]1O[C@@H](n2cnc3c(NCc4cccc(I)c4)nc(Cl)nc32)[C@H](O)[C@@H]1O					Ki [6]: 1.6 nM; Ki [7]: 2.7 nM
CNC(=O)[C@H]1O[C@@H](n2cnc3c(NCc4cccc(I)c4)nc(Cl)nc32)[C@@H]2O[C@@H]21					Ki [8]: 1100 nM
CNC(=O)C12CC1C(n1cnc3c(NC)nc(Cl)nc31)C(O)C2O (configuration not stated)		3.4		1.4	
CCCOC(=O)c1c(-c2ccccc2)nc(CC)c(C(=O)SCC)c1CCC			238		Ki [9]: 2150 nM; Ki [6]: 234 nM; Ki [7]: 357 nM
